Measurements from patent US6730670B2, “7-phenyl-benzo[b]thiophen amide derivatives” (Hoffmann-La Roche Inc., priority 2001, dated 2004).

target: T1, human adenosine A2A receptor (Homo sapiens, UniProt P29274); experiment: [3H]-SCH-58261 binding assay, human adenosine A2A receptor (CHO cell membranes, SPA); conditions: [3H]-SCH-58261 1 nM; membranes of CHO cells expressing human A2A receptor; Ki from IC50 by Cheng-Prussoff equation; read-out: hA2 (pKi) (converted)
T1 construct: expressed in transfected cells; host or cells: CHO cells, Semliki Forest virus expression system; washed membrane preparation
T1 sequence (P29274 whole entry): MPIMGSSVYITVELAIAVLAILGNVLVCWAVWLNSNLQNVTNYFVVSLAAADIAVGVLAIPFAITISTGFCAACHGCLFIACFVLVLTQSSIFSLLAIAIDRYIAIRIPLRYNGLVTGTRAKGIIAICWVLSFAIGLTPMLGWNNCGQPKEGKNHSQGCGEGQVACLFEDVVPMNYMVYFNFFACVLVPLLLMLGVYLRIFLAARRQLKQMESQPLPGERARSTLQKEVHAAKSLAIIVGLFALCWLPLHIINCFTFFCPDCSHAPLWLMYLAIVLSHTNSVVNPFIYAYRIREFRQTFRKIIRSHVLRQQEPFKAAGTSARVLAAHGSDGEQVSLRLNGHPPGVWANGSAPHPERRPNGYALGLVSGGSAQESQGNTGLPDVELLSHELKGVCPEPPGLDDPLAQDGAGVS
Experimental: Human Adenosine A2A Receptor
The human adenosine A2A receptor was recombinantly expressed in chinese hamster ovary (CHO) cells using the semliki forest virus expression system. Cells were harvested, washed twice by centrifugation, homogenized and again washed by centrifugation. The final washed membrane pellet was suspended in a Tris (50 mM) buffer containing 120 mM NaCl, 5 mM KCl, 2 mM CaCl2 and 10 mM MgCl2 (pH 7.4) (buffer A). The [^3H]-SCH-58261 (Dionisotti et al., 1997, Br J Pharmacol 121, 353; 1 nM) binding assay was carried out in 96-well plates in the presence of 2.5 μg of membrane protein, 0.5 mg of Ysi-poly-1-lysine SPA beads and 0.1 U adenosine deaminase in a final volume of 200 μl of buffer A. Non-specific binding was defined using xanthine amine congener (XAC; 2 μM). Compounds were tested at 10 concentrations from 10 μM-0.3 nM. All assays were conducted in duplicate and repeated at least two times. Assay plates were incubated for 1 hour at room temperature before centricentrifugation and then bound ligand determined of test compound using a Packard Topcount scintillation counter. IC50 values, the concentration where 50% of the […] binding is displaced, were calculated using a non-linear curve fitting program and Ki values calculated using the Cheng-Prussoff equation.
Preferred compounds of formula I have a pKi>6.4.

SMILES	Ki [nM]
COc1ccc(-c2ccccc2)c2sc(NC(=O)N3CCSCC3)cc12 [Example 1, Thiomorpholine-4-carboxylic acid (4-methoxy-7-phenyl-benzo[b]thiophen-2-yl)-amide]	155
COc1ccc(-c2ccccc2)c2sc(NC(=O)N3CCC(O)CC3)cc12 [Example 4, 4-Hydroxy-piperidine-1-carboxylic acid (4-methoxy-7-phenyl-benzo[b]thiophen-2-yl)-amide]	126
COc1ccc(-c2ccccc2)c2sc(NC(=O)N3CCC(OC)CC3)cc12 [Example 5, 4-Methoxy-piperidine-1-carboxylic acid (4-methoxy-7-phenyl-benzo[b]thiophen-2-yl)-amide]	347
COc1ccc(-c2ccccc2)c2sc(NC(=O)N3CCC(CO)CC3)cc12 [Example 6, 4-Hydroxymethyl-piperidine-1-carboxylic acid (4-methoxy-7-phenyl-benzo[b]thiophen-2-yl)-amide]	97.7
COc1ccc(-c2ccccc2)c2sc(NC(=O)N3CCN(C)CC3)cc12 [Example 7, 4-Methyl-piperazine-1-carboxylic acid (4-methoxy-7-phenyl-benzo[b]thiophen-2-yl)-amide]	240

The remaining lines, values ahead:

Ki [nM]	SMILES
263	COc1ccc(-c2ccccc2)c2sc(NC(=O)N3CCOCC3)cc12 [Example 2, Morpholine-4-carboxylic acid (4-methoxy-7-phenyl-benzo[b]thiophen-2-yl)-amide]
257	COc1ccc(-c2ccccc2)c2sc(NC(=O)N3CCCCC3)cc12 [Example 3, Piperidine-1-carboxylic acid (4-methoxy-7-phenyl-benzo[b]thiophen-2-yl)-amide]
302	COc1ccc(-c2ccccc2)c2sc(NC(=O)c3ccc(C)nc3)cc12 [Example 8, N-(4-Methoxy-7-phenyl-benzo[b]thiophen-2-yl)-6-methyl-nicotinamide]
389	COc1ccc(-c2ccccc2)c2sc(NC(=O)c3ccnc(C)c3)cc12 [Example 9, N-(4-Methoxy-7-phenyl-benzo[b]thiophen-2-yl)-2-methyl-isonicotinamide]
43.7	COc1ccc(-c2ccccc2)c2sc(NC(=O)c3ccc(F)cc3)cc12 [Example 10, 4-Fluoro-N-(4-methoxy-7-phenyl-benzo[b]thiophen-2-yl)-benzamide]
